Read-outs that look alike come from different tables or passages of the source. Marks after values point to notes of the source that are not given here.
Assays:
[1] = molecular target: T1, Human SQOR (Homo sapiens, UniProt Q9Y6N5); details: cited from earlier work
T1 construct: made in house

[2] = cited from earlier work
[3] = pKa and nucleophilicity of LMW persulfides by pH-dependence of reaction rates with mBrB (stopped-flow fluorescence); details: for ΔpKa: analog thiol pKa minus persulfide pKa; for pKa, Persulfide / kind with mBrB, Persulfide: I = 0.15, 25 °C, this work; for kind with mBrB, Persulfide: pH-independent rate constant
[4] = cited from earlier work; for kind with mBrB, Analog thiol: pH-independent rate constant of analog thiol
[5] = molecular target: T1, Human SQOR; assay type: biochemical; details: neutral pH
Protocol: The acidity of the persulfidated SQOR was evaluated by the pH-dependence of the steady-state rates. For enzymes that catalyze reactions with one substrate, the kinetic parameter kcat/Km (specificity constant) is an apparent second-order rate constant that reports on the properties of the free enzyme and the free substrate ([32]). kcat/Km can be calculated from the kinetic parameters kcat and Km obtained from typical Michaelis–Menten analysis (Equation 1). […]
SQOR uses three substrates: H2S, a sulfur acceptor (Acc^−), and CoQ (Fig. 1A). At saturating concentrations of H2S and CoQ, the kcat/Km^Acc- represents the apparent rate constant for the reaction between the sulfur acceptor and the Cys379SSH of the bis-persulfidated SQOR, and its pH-dependency reports on the pKa of both free species. Although the pH dependence of human SQOR activity has been reported ([25]), the pH dependence of kcat/Km is unavailable. The steady-state rate of SQOR was determined by monitoring the reduction of coenzyme Q1 (CoQ1) at 278 nm at varying pH at 25 °C. […]. Therefore, in the experiments with cyanide, the reactions were started with cyanide instead of SQOR so that the contribution of SQOR with H2S alone could be subtracted.
In experiments with sulfite, steady-state time courses with varying concentrations of sulfite (0.01–8 mM) were recorded, and linear functions were fitted to the first 15 to 40 s following SQOR addition (Fig. 3A). The slope before SQOR addition was subtracted to correct for the background nonenzymatic reduction of CoQ1, which was minimal. From the hyperbolic fit of the activity versus sulfite concentration plot (Fig. 3B), the kinetic parameters kcat^sulfite and Km^sulfite were obtained, and the kcat/Km^sulfite for each pH were calculated. As expected, when the kcat/Km^sulfite were plotted against pH, a bell-shaped profile was obtained (Fig. 3C), consistent with a reaction between a deprotonated species and a protonated one. An equation with two pKa was fitted to the data (Equation 3), assuming that deprotonated sulfite and protonated SQOR persulfide were the reacting species. […]. […]
The steady-state rates were obtained from linear fits to the data during the first 4 to 20 s following cyanide addition, and the slopes before cyanide addition were subtracted. The kcat/Km^cyanide at each pH was calculated according to Equation 2 using the enzyme (50 nM) and cyanide (90 μM) initial concentrations. […]
Human SQOR was expressed and purified as reported previously ([24], [25]). SQOR concentration was determined from the FAD absorbance at 450 nm, using ε = 11,500 M^−1 cm^−1 ([25]). […]
The activity of SQOR was measured at different pHs in a temperature-controlled spectrophotometer (Shimadzu UV-2600 or UV-1900i). […]

[6] = molecular target: Cys248 (UniProt position 248, PLIATCRKGVT); details: cited from earlier work
[7] = system: bovine TST; details: cited from earlier work
[8] = molecular target: TST thiol (Homo sapiens, UniProt Q16762)
Protocol: The pH-dependency of the reaction rates of TST persulfide with sulfur acceptors and of TST thiol with thiosulfate were studied by following changes in the intrinsic fluorescence (λex = 295 nm, US 360 nm bandpass filter) in the stopped-flow spectrofluorimeter.
To prepare TST thiol, ∼ 100 μM thiosulfate was added to TST stocks ( ∼ 20 μM) at room temperature. After 15 min, ∼ 200 μM cyanide was added and left to react for 10 min. The remaining LMW compounds were removed with a PD MidiTrap G-25 column equilibrated with 10 mM Tris buffer, pH 8.5. The TST thiol was diluted in ultrapure water (1.8–2.0 μM) in one of the stopped-flow syringes and reacted with thiosulfate (400 μM) prepared in the other syringe in either acetic/MES/Tris buffer 2× (pH 3.68–8.75) or in ACES/Tris/ethanolamine buffer 2× (pH 6.68–10.34), at 25 °C. The final concentrations were halved as a result of the symmetrical stopped-flow mixing. The decrease in the intrinsic fluorescence caused by persulfide formation was recorded during 0.8 to 200 s depending on the time course, and the final pH was measured.

[9] = forms as drawn in Table 1 (ammonium form for CysOMeSSH)

T1 sequence (Q9Y6N5 whole entry): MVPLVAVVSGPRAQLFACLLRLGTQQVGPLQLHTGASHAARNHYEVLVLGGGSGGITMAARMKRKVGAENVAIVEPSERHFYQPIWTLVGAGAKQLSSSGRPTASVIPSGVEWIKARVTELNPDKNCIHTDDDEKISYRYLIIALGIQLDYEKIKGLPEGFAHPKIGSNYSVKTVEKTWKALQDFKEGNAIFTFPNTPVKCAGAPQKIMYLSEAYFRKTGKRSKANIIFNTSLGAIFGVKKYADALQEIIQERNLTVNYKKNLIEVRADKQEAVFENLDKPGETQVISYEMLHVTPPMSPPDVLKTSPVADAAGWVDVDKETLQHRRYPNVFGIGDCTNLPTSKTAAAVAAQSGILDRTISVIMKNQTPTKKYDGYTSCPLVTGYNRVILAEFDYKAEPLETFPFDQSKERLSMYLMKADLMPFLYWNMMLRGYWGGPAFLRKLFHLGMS
TST thiol, sequence (Q16762 whole entry): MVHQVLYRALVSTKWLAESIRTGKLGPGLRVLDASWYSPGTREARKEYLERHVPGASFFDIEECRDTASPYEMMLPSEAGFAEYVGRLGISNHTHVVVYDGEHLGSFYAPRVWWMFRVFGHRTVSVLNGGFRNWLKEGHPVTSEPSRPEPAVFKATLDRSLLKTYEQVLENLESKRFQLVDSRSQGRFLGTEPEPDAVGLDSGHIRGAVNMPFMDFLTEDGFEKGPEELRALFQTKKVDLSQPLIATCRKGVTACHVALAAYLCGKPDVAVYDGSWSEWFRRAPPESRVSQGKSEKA

For `COC1=C(OC)C(=O)C(CC=C(C)C)=C(C)C1=O` [CoQ1, coenzyme Q1], which Km ([1]; pH 7.5, read-out: Km^CoQ1) is on record?
The Km was 19 µM.

With `CC(C)c1ccccc1` [Cumene] as the molecule, how does the “pKa, Analog thiol” value ([2]; analog thiol of the persulfide, predicted value based on similar thiols) read?
The value was >10 ^h.

And the “pKa, Persulfide” value [2]?
Its value is 7.0 ^g.

And the ΔpKa [3]?
Its ΔpKa is greater than 3.

For `COC(=O)[C@@H](N)CSS` [CysOMeSS^−, cysteine methyl ester persulfide], which “pKa, Persulfide” value [3, 9] is on record?
Its value is 4.6 ± 0.1 ^a.

What about the “pKa, Persulfide” value ([3]; second pKa of two-pKa fit, amino (NH2) form of CysOMeSSH) of the same molecule?
The value was 6.3 ± 0.6 ^a.

And the ΔpKa [3]?
Its ΔpKa is 2.8.

What about the ΔpKa ([3]; amino (NH2) form of CysOMeSSH) of the same molecule?
Its ΔpKa is 2.6.

And the “kind with mBrB, Persulfide” value [3]?
The value was 3.8 ± 0.4 ^a × 10^3 M^−1 s^−1.

What about the “kind with mBrB, Persulfide” value ([3]; amino (NH2) form of CysOMeSSH) of the same molecule?
The value was 5.4 ± 0.8 ^a × 10^3 M^−1 s^−1.

Which “pKa, Persulfide” value [3, 9] does the source give for `N[C@@H](CSS)C(=O)O` [CysSS^−, cysteine persulfide] here?
Its value is 5.2 ± 0.1 ^a.

What about the ΔpKa [3] of the same molecule?
Its ΔpKa is 3.1.

And the “kind with mBrB, Persulfide” value [3]?
Its value is 3.2 ± 0.1 ^a × 10^3 M^−1 s^−1.

What about the “pH-independent second-order rate constant, kind, with mBrB” value ([3]; persulfide, 25 °C) of the same molecule?
The value was “(3.2 ± 0.1) × 10^3 M^−1 s^−1”.

With `NCCSS` [CystSS^−, cysteamine persulfide] as the molecule, how does the “pKa, Persulfide” value [3, 9] read?
Its value is 4.87 ± 0.09 ^a.

And the “kind with mBrB, Persulfide” value [3]?
The value was 3.9 ± 0.2 ^a × 10^3 M^−1 s^−1.

With `COC(=O)[C@@H](N)CS` [Cysteine methyl ester] as the molecule, how does the “pKa, Analog thiol” value ([2]; analog thiol, amino (NH2) form) read?
The value was 8.88 ^b.

And the “pKa, Analog thiol” value ([2]; analog thiol, ammonium form)?
Its value is 7.44 ^b.

And the “pKa of the ammonium group” value ([2]; listed as CysOMeSH)?
Its value is 6.88.

What about the “pKa of the ammonium group” value ([2]; listed as CysOMeS^−) of the same molecule?
Its value is 8.32.

With `N[C@@H](CS)C(=O)O` [Cysteine] as the molecule, how does the “pKa, Analog thiol” value ([2]; analog thiol) read?
The value was 8.29 ^d.

What about the “kind with mBrB, Analog thiol” value [4] of the same molecule?
The value was 105 ^d M^−1 s^−1.

Which results are given for `N[C@@H](CCC(=O)N[C@@H](CSS)C(=O)NCC(=O)O)C(=O)O` [GSS^−, glutathione persulfide]?
ΔpKa [3]: 3.49; pKa, Persulfide ([4]; I = 0.15, 25 °C): 5.45 ± 0.03 ^e; kind with mBrB, Persulfide ([4]; pH-independent rate constant, I = 0.15, 25 °C): 9.0 ± 0.2 ^e × 10^3 M^−1 s^−1

With `N[C@@H](CCC(=O)N[C@@H](CS)C(=O)NCC(=O)O)C(=O)O` [Glutathione, glutathione] as the molecule, how does the “pKa, Analog thiol” value ([2]; analog thiol) read?
Its value is 8.94 ^d.

What about the “pKa of the glycyl carboxylic acid” value ([2]; neutral variant of GSH) of the same molecule?
Its value is 3.36.

What about the “pKa of the glycyl carboxylic acid” value ([2]; positive variant of GSH) of the same molecule?
Its value is 3.12.

What about the Km ([1]; pH 7.4, read-out: Km^GSH) of the same molecule?
The Km was 8000 µM.

And the “kind with mBrB, Analog thiol” value [4]?
The value was 208 ^d M^−1 s^−1.

Which “kind with mBrB, Persulfide” value [3] does the source give for `NC(CCSS)C(=O)O` (stereo not drawn) [HcySS^−, homocysteine persulfide] here?
The value was 5.4 ± 0.1 ^a × 10^3 M^−1 s^−1.

For `NC(CCS)C(=O)O` (stereo not drawn) [Homocysteine], which “pKa, Analog thiol” value ([2]; analog thiol) is on record?
The value was 9.1 ^d.

With `S` [Persulfide H2S, hydrogen sulfide] as the molecule, how does the Km ([1]; pH 7.4, H2S as sulfur acceptor, read-out: Km^H2S (Acceptor)) read?
Its Km is 350 µM.

And the Km ([1]; pH 7.5, first step of catalysis, read-out: Km^H2S (Donor))?
Its Km is 13 µM.

With `Cl` [chloride] as the molecule, how does the “increase of apparent Km^sulfite” value ([5]; in the presence of 120 mM chloride versus absence) read?
Its value is roughly 20 fold.

And the Ki ([5]; sulfite as sulfur acceptor, read-out: Ki (estimated), reversible competitive inhibition versus sulfite)?
The Ki was roughly 7.4 mM.

For `OCCSS` [β-MESS^−, β-mercaptoethanol persulfide], which “pKa, Persulfide” value [3, 9] is on record?
Its value is 5.8 ± 0.1 ^a.

What about the ΔpKa [3] of the same molecule?
The ΔpKa was 3.8.

What about the “kind with mBrB, Persulfide” value [3] of the same molecule?
Its value is 7.5 ± 0.4 ^a × 10^3 M^−1 s^−1.

For `OCCS` [β-Mercaptoethanol], which “pKa, Analog thiol” value ([2]; analog thiol) is on record?
The value was 9.6 ^d.

What about the “kind with mBrB, Analog thiol” value [4] of the same molecule?
Its value is 519 ^d M^−1 s^−1.

For “Thiosulfate sulfurtransferase (rhodanese), bovine liver (Bos taurus)”, which pKa ([6]; free enzyme thiol ('the thiol alone')) is on record?
Its pKa is 7.8.

And the pKa ([6]; thiol in complex with substrate analogs)?
The pKa was 6.75 to 7.05.

And the pKa ([6]; thiol in complex with thiosulfate)?
The pKa was 6.5.

B1: bovine TST: bovine thiosulfate sulfurtransferase (rhodanese), literature values (protein, UniProt P00586 2-297, looked up)
Thiosulfate sulfurtransferase: VHQVLYRALVSTKWLAESVRAGKVGPGLRVLDASWYSPGTREARKEYLERHVPGASFFDIEECRDKASPYEVMLPSEAGFADYVGSLGISNDTHVVVYDGDDLGSFYAPRVWWMFRVFGHRTVSVLNGGFRNWLKEGHPVTSEPSRPEPAIFKATLNRSLLKTYEQVLENLESKRFQLVDSRAQGRYLGTQPEPDAVGLDSGHIRGSVNMPFMNFLTEDGFEKSPEELRAMFEAKKVDLTKPLIATCRKGVTACHIALAAYLCGKPDVAIYDGSWFEWFHRAPPETWVSQGKGGKA
Which “pKa of the thiol alone” value ([7]; bovine TST) does the source give for B1 here?
The value was 7.8.

What about the “pKa of the thiol in complex with substrate analogs” value [7] of the same molecule?
Its value is 6.75 to 7.05.

What about the “pKa of the thiol in complex with thiosulfate” value [7] of the same molecule?
Its value is 6.5.

B2: TST thiol (protein, UniProt Q16762 2-297, looked up)
Thiosulfate sulfurtransferase: VHQVLYRALVSTKWLAESIRTGKLGPGLRVLDASWYSPGTREARKEYLERHVPGASFFDIEECRDTASPYEMMLPSEAGFAEYVGRLGISNHTHVVVYDGEHLGSFYAPRVWWMFRVFGHRTVSVLNGGFRNWLKEGHPVTSEPSRPEPAVFKATLDRSLLKTYEQVLENLESKRFQLVDSRSQGRFLGTEPEPDAVGLDSGHIRGAVNMPFMDFLTEDGFEKGPEELRALFQTKKVDLSQPLIATCRKGVTACHVALAAYLCGKPDVAVYDGSWSEWFRRAPPESRVSQGKSEKA
modifications: active-site cysteine thiol
With B2 as the molecule, how does the “pH-independent rate constant, Cyanide” value [8] read?
Its value is “No reaction”.

What about the “pH-independent rate constant, Sulfite” value [8] of the same molecule?
The value was “No reaction”.

What about the “second-order rate constant with thiosulfate” value [8] of the same molecule?
The value was roughly 30000 M⁻¹ s⁻¹.

What about the “pKa of the decrease in kobs at alkaline pH” value ([8]; pH 6.68) of the same molecule?
Its value is roughly 10.
